Common to all, as to type: cell-based
In one assay the target is T1, NK1R (NK1) (Homo sapiens, UniProt P25103).
T1 construct: host or cells: HeLa cells, pcDNA3.1(-)
The assay is described as follows: Calcium imaging of cells transfected with the GPCR (Table 1). The following applies: FIG. 6a: SP 5 nM, inhibitors 1 μM. On the procedure: (§1) Human NK1 cDNA was obtained from LIFE Technologies, PCR cloned with Xho I-Hind III ends and cloned into pcDNA3.1(−). Mouse NK2 and NK3 expression-ready vectors were obtained from […] (Piscataway, N.J.). All other Mrgprs (human MRGPRX1, human MRGPRX2, human MRGPRX3, human MRGPRX4, mouse MrgprA2a, mouse MrgprA2b, mouse MrgprA3, mouse MrgprA4, mouse MrgprA9, mouse MrgprA10, mouse MrgprB4 and mouse MrgprB5) were cloned by PCR from genomic DNAs and inserted into pcDNA3.1 (−).
(§2) 10 μg of expression vector (human MRGPRX2, mouse MrgprA1 or NK1) and 10 μl of LIPOFECTAMINE 2000 transfection reagent were diluted into 0.5 ml of DMEM and separately left at room temperature (RT) for 5 min. They were then mixed and incubated at RT for 20 minutes prior to being added to HeLa cells. HeLa cells were grown to confluence, trypsinized and 1×10^6 cells were pelleted in a 15 ml tube by centrifugation at 1000 rpm for 5 minutes. […]
Calcium imaging was performed immediately after loading cells with Fura-2, using a ZEISS Axiovert 200M microscope platform equipped with a flipping filter wheel for ratiometric imaging. […] The software later analyzed all images taken during each excitation period. Ratiometric changes were measured in 10-20 cells in each individual experiment. An average of the fluorescence of the cells in each image was calculated and plotted against time in seconds.

The next assay has as its target T2, hMRGPRX2 (Homo sapiens, UniProt Q96LB1).
T2 construct: expressed in transfected cells
T2 sequence (Q96LB1 1-330): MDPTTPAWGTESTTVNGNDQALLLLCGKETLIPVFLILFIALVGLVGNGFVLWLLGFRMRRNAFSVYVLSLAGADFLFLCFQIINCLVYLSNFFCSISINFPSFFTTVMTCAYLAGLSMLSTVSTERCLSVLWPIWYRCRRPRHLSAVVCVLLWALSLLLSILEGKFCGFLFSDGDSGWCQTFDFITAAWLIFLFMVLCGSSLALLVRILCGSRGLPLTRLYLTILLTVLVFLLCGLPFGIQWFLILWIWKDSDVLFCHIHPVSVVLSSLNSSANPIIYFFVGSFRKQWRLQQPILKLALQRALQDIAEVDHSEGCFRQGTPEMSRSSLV
Put plainly: Concentration-effect curves of substance P versus QWF, stable HEK-293 cell line. The following applies: stable HEK-293 clone; experiment done once, triplicate points. The text has this: Concentration-effect curves with substance P versus the indicated concentrations of QWF on a stable HEK-293 cell line expressing hMRGPRX2. HEK293 cells were transfected with a pcDNA3.1(−) vector containing MRGPRX2 cDNA and clones resistant to […] (G418) were selected. The data were generated from one of those clones. The experiment was done once with each data point done in triplicate. Error bars represent+/−SEM.

The subject of another assay is human LAD2 mast cells. The assay is described as follows: Human LAD2 mast cell degranulation assay (β-hexosaminidase release). The following applies: LAD2 cells preincubated with 100 μM QWF for 10 min. As for the experimental part:
The human LAD2 mast cell line (from D. Metcalfe, National Institute of Allergy and Infectious Diseases, NIH, Bethesda, Md.) was cultured in StemPro-34 SFM medium (LIFE TECHNOLOGIES) supplemented with 2 mM L-glutamine, 100 U/ml penicillin, 100 μg/ml streptomycin, and 100 ng/ml recombinant human stem cell factor (PEPROTECH). The cells were maintained at 0.25-5×10^5 cells/ml at 37° C. and 5% CO2 and hemi-depleted each week.
Degranulation was measured as described previously (36). In brief, LAD2 cells were preincubated with 100 μM QWF for 10 min before activation by agonists at indicated concentrations for 30 min. The level of mast cell degranulation was assessed by the release of β-hexosaminidase in mast cell granules, quantified by the level of its substrate p-nitrophenyl N-acetyl-β-D-glucosamide (PNAG) digested in a colorimetric assay.

A further assay addresses T3, MrgC11 (mouse MrgprC11) (Mus musculus, UniProt Q8CIP3).
T3 construct: expressed in transfected cells; host or cells: HeLa cells
T3 sequence (Q8CIP3 1-322): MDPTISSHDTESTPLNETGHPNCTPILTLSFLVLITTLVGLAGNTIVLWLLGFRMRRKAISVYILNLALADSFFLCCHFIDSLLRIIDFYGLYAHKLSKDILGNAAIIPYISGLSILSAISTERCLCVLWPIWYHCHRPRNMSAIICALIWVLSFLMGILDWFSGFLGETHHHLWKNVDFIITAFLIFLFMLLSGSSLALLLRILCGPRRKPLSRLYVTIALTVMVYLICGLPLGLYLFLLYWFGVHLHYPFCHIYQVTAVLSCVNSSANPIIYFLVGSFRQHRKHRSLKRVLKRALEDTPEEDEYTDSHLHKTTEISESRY
The assay is described as follows: Calcium imaging of cells transfected with the GPCR (Table 1). The following applies: capsaicin 3 μM.

A further assay deals with T4, MrgX3 (human MRGPRX3) (Homo sapiens, UniProt Q96LB0).
T4 construct: expressed in transfected cells; host or cells: HeLa cells, pcDNA3.1(-)
Described as above. The following applies: SP 10 μM (FIG. 9). As for the experimental part: as §1, §2
(§3) Calcium imaging was performed immediately after loading cells with Fura-2, using a ZEISS Axiovert 200M microscope platform equipped with a flipping filter wheel for ratiometric imaging. […] The software later analyzed all images taken during each excitation period. Ratiometric changes were measured in 10-20 cells in each individual experiment. An average of the fluorescence of the cells in each image was calculated and plotted against time in seconds. […]

The target of another assay is T5, MrgX4 (human MRGPRX4) (Homo sapiens, UniProt Q96LA9).
T5 construct: expressed in transfected cells; host or cells: HeLa cells, pcDNA3.1(-)
The assay is described as above. The following applies: SP 10 μM (FIG. 9). As for the experimental part: as §1, §2, §3

Entries after “also recorded” stand apart in the source; their conditions may differ.

T1 sequence (P25103 whole entry): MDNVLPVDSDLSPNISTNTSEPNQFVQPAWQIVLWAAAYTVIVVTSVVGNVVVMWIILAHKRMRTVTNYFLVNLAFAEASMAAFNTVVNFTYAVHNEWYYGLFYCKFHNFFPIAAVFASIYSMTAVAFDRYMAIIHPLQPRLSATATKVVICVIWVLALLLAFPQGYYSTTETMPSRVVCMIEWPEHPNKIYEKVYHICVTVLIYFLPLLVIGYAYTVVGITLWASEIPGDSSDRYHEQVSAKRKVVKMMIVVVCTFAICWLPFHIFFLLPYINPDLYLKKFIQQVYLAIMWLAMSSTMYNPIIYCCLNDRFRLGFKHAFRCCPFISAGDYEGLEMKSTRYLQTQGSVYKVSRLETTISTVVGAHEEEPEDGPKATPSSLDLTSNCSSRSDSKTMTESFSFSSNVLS
T5 sequence (Q96LA9 whole entry): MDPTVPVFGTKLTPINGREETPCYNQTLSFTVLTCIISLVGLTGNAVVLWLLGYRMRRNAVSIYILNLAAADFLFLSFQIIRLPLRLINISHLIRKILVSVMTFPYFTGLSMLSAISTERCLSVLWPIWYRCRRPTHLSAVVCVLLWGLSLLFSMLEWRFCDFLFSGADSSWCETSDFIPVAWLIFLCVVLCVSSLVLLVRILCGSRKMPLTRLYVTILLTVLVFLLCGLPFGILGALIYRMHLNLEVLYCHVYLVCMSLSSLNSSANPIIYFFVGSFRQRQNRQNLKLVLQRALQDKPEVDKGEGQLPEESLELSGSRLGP
T4 sequence (Q96LB0 whole entry): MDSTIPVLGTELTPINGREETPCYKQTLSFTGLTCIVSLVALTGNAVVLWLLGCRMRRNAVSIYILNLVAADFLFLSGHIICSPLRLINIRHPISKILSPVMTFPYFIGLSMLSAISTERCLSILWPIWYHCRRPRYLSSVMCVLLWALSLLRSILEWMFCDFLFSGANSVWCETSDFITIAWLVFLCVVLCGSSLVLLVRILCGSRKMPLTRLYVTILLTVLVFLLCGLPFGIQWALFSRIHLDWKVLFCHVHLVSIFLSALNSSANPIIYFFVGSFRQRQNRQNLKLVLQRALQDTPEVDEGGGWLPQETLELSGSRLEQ

Regarding “Boc-Gln-D-Trp(Formyl)-Phe benzyl ester trifluoroacetate [QWF]”, the “inhibition of NK1 (activation by SP)” value on NK1R (NK1) is reported as “inhibit; also recorded: blocks”. Also, the “mode of QWF antagonism of substance P at hMRGPRX2” value at hMRGPRX2 is “competitive antagonist”. Further, in the assay on human LAD2 mast cells, the “inhibition of degranulation induced by SP” value is “significantly inhibits”, the “inhibition of degranulation induced by atracurium” value is recorded as “significantly inhibits”, the “inhibition of degranulation induced by ciprofloxacin” value is “significantly inhibits” and the “inhibition of degranulation induced by compound 48/80” value was “significantly inhibits”.

For “SLIGRL: tethered hexapeptide ligand of mouse PAR2 (SEQ ID NO: 7)”, the “activation of mouse MrgprC11 by the substance (in words)” value in the assay with MrgC11 (mouse MrgprC11) is listed as “activates”.

“SP: inflammatory undecapeptide neuropeptide of the tachykinin family, synthesized by GenScript”: in the assay with MrgX3 (human MRGPRX3), the “activation of hMRGPRX3 by the substance (in words)” value is “does not activate”. Besides, the “activation of hMRGPRX4 by the substance (in words)” value with MrgX4 (human MRGPRX4) is recorded as “does not activate”.
